# From patent US5773469A, “Diaryl antimicrobial agents” (Ortho Pharmaceutical Corporation, priority 1996, dated 1998)
# Counter-ions that a name gives are not always drawn.
# Experiments:
# [1] = target: T1, Kinase A and SpoOF (Bacillus subtilis, UniProt P16497); experiment: Autophosphorylation of Kinase A and transphosphorylation of SpoOF assay (HPK in vitro assay); format: biochemical; details: inhibition of KinA autophosphorylation / SpoOF transphosphorylation, [32P]ATP, gel and phosphoimager
# T1 sequence (P16497 1-606): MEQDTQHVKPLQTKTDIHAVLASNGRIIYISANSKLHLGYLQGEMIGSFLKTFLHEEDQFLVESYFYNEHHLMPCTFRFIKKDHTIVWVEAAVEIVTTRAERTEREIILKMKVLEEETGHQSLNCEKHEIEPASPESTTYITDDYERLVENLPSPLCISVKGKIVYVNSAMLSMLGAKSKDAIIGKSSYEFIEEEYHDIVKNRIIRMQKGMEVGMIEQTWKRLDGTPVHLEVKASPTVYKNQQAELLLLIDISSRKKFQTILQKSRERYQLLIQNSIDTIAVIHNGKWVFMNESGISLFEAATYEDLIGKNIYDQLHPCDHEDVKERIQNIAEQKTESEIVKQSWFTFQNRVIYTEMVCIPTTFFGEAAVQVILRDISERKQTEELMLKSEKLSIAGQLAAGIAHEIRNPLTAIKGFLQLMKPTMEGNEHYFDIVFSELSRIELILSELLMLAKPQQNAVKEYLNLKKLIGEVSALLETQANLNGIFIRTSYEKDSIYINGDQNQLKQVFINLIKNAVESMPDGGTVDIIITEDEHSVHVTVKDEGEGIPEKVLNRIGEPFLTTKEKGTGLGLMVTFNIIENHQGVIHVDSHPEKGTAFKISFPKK
# Method: 1. Autophosphorylation of Kinase A and Transphosphorylation of SpoOF Assay
# To study the effect of the compounds of the present invention on the signal transduction process in bacteria, the inhibiting effect of the compounds on the sporulation operon proteins Kinase A and SpoOF was examined. Specifically, the inhibition of autophosphorylation of Kinase A and the transphosphorylation of SpoOF was determined in the following assays. The SpoOF response regulator is the primary substrate for phosphorylation by the protein kinase, Kin A, involved in the sporulation process in bacteria. See D. Burbulys, K. A. Trach, J. A. Hoch, Cell, 64, 545-552 (1991).
# The following stock reagents were either prepared and used promptly or stored at the indicated temperature:
# 8× Salts: 2M KCl (5 mL), 1M MgCl2 (800 mL), 1M CaCl2 (100 mL), 10 mg/mL phenylmethylsulfonyl fluoride (200 mL), 1M dithioreitol (50 mL), 0.25M Na2 EDTA (32 mL) and H2 O 3.82 mL (-20°C.)
# 5× Loading Dye: 0.5M TRIS-HCl-pH 6.8 (7.5 mL), 10% SDS (2 mL) 0.1% bromophenol blue (0.5 mL), 100% glycerol (3 mL) and 12.5M 2-mercaptoethanol (0.3 mL)
# 1-1.3 mg/mL KinA:15 mM TRIS-HCl, pH 8.0, 6 mM KCl; 4 mM 2-mercaptoethanol; 40% glycerol (-20 C.)
# 1 mg/mL Spo0F: 17.5 mM TRIS-HCl, pH 8.0; 0.7 mM KCl; 0.7 mM MgCl2; 0.7 mM CaCl2; 5 mM 2-mercaptoethanol; 30% Glycerol (-20°C.)
# 5% Stacking Gel: 40% 29:1 acrylamide:bis acrylamide (1.25 mL), 0.5M TRIS-HCl, pH 6.8 (2.5 mL), 10% SDS (0.1 mL), D-H2 O (6.15 mL) 10% ammonium persulfate (100 mL) and TEMED (25 mL)
# SDS Running Buffer: TRIS-BASE (3.02 g), glycine (14.4 g) SDS (1 g), D-H2 O (to 1 L)
# The reaction mixture was prepared from 8× Salts (87 μL), 1M TRIS, pH 8 (118 EL), 50% glycerol (63 μL), Spo0F (14.1 μL) and KinA (7.0 μL). Microcentrifuge tubes were charged with the reaction mixture (18.5 μL) and a 1.0 mM solution of the test compound in 5% DMSO (18.5 μL), and incubated for 15 min on ice. 100 mM ATP solution (3.0 μI, containing 625 μCi [^32 P]ATP) was added, and the mixture left for 10 minutes at room temperature. The reaction was quenched with 5× loading dye (10 μL per tube) and the samples were loaded on a prepared 5% Stacking Gel, or stored on dry ice until ready for use. The prepared wells were filled with SDS Running Buffer, samples were loaded into the wells, and 80 volts were applied to the gel until the dye front reached the bottom of the stacking gel. The voltage was then increased to 250 volts until electrophoresis was complete. Radioactive bands in the gel corresponding to phosphorylated KinA and SpoOF were imaged and quantitated with a phosphoimager.
# If either enzyme was inhibited (as evidenced by the absence of labelled protein in the developed gel), an IC50 was calculated by running the assay with a range of inhibitor concentrations from 1 to 500 μM. After electrophoresis of the reaction mixtures, percent inhibition was determined by measuring the concentration of radioactive phosphorus with a phosphoimager and calculating the values using a software program (BioRad Molecular Analyst).
# [2] = system: gram positive bacteria / Gram negative bacteria (Enterococcus faecalis, Staphylococcus aureus incl. methicillin resistant, Staphylococcus epidermidis …); experiment: MIC antimicrobial assay (NCCLS microdilution broth method); format: cell-based; details: MIC value range over the selected gram positive and gram negative test organisms; 35° C., 16-20 hours
# Method: 2. MIC Antimicrobial Assay
# The in vitro antimicrobial activity of the compounds was determined by the microdilution broth method following the test method from the National Committee for Laboratory Standards (NCCLS). This method is described in the NCCLS Document M7-A2, Vol.10, No. 8 "Methods for Dilution Antimicrobial Susceptibility Test for Bacteria that Grow Aerobically-Second Edition."
# In this method two-fold serial dilutions of drug in cation supplemented Mueller-Hinton broth are added to wells in microdilution trays. The test organisms are prepared by adjusting the turbidity of actively growing broth cultures so that the final concentration of test organism after it is added to the wells is approximately 5×10^4 CFUs/well).
# Following inoculation of the microdilution trays, the trays are incubated at 35° C. for 16-20 hours and then read. […] The amount of growth in the wells containing the test compound is compared with the amount of growth in the growth-control wells (no test compound) used in each tray. The following test organisms were utilized in the assay:
# Enterococcus faecalis ATCC 29212
# Enterococcus faecalis oc 3041
# Enterococcus faecalis oc 2993
# Methicillin resistant Staphylococcus aureus oc 2089
# Methicillin resistant Staphylococcus aureus oc 667
# Staphylococcus aureus ATCC 29213
# Staphylococcus aureus ATCC 6538
# Staphylococcus epidermidis oc 2603
# Escherichia coli oc 2530 ss […]
Structure (SMILES),IC50 [1] [µM],MIC(G+/G-) [2]
"NCCc1ccc(O[C@@H]2CC[C@H](c3ccccc3)c3ccccc32)cc1 (relative stereo) [Compound 6, 2-[4-(ClS-4-PHENYL-1,2,3,4-TETRAHYDRO-1-NAPHTHOXY)PHENYL]-ETHYLAMINE OXALATE]",68.9,–
"NCCc1ccc(OCCC(c2ccccc2)c2ccccc2)cc1 [Compound 2, 2-[4-(3,3-DIPHENYLPROPOXY)PHENYL]ETHYLAMINE]",31.25,–
"N=C(N)NCc1cccc(OCCC(c2ccccc2)c2ccccc2)c1 [Compound 7, [3-(3,3-DIPHENYLPROPOXY)PHENYL]METHYLGUANIDINE BICARBONATE 0.5 HYDRATE]",60,2-32
"NCCc1ccc(OCC=C(c2ccccc2)c2ccccc2)cc1 [Compound 9, 2-[4-(3,3-DIPHENYL-2-PROPENOXY)PHENYL]ETHYLAMINE HYDROCHLORIDE·0.5HYDRATE]",41,–
"NCCc1ccc(OC(c2ccccc2)c2ccccc2)cc1 [Compound 10, 2-{4-(2-DIPHENYL-2-METHOXY)PHENYL}ETHYLAMINE·HYDROCHLORIDE·HYDRATE]",68,–
"C1=C(c2ccc(OCCC(c3ccccc3)c3ccccc3)cc2)CCNC1 [Compound 15, 4-[4-(3,3-DIPHENYLPROPYLOXY)PHENYL]-1,2,3,6-TETRAHYDROPYRIDINE·HYDROCHLORIDE 0.6 HYDRATE]",45.6,–
"NCCc1ccc(OCCC(c2ccccc2)c2cccnc2)cc1 (stereo not drawn) [Compound 18, 2-[4-(3-PHENYL-3-(3-PYRIDYL)PROPOXY)PHENYL]ETHYLAMINE·OXALATE·0.1 HYDRATE]",> 100,–
"C1=C(c2ccc(OCCOC(c3ccccc3)c3ccccc3)cc2)CCNC1 [Compound 25, 4-{4-[2-(DIPHENYLMETHOXY) ETHOXY]PHENYL}-1, 2, 3, 6-TETRAHYDROPYRIDINE·MONOOXALATE 0.5 HYDRATE]",313,–

# Further lines, with some results ahead:
IC50 [1] [µM],Structure (SMILES),MIC(G+/G-) [2]
21.5,"N=C(N)NCCc1ccc(OCCC(c2ccccc2)c2ccccc2)cc1 [Compound 3, 2-[4-(3,3-DIPHENYLPROPOXY)PHENYL]ETHYLGUANIDINE]",–
19.8,"N=C(N)NCCc1ccc(OCCC2c3ccccc3-c3ccccc32)cc1 [Compound 4, {2-[4-[2-(9-FLUORENYL)ETHOXY]PHENYL]ETHYL}GUANIDINE]",–
42.9,"NCc1cccc(OCCC(c2ccccc2)c2ccccc2)c1 [Compound 8, [3-(3,3-DIPHENYLPROPOXY)PHENYL]METHYLAMINE·HYDROCHLORIDE·0.6 HYDRATE]",–
19.5,"NCCCc1ccc(OCC=C(c2ccccc2)c2ccccc2)cc1 [Compound 11, 3-[4-(3,3-DIPHENYL-2-PROPENOXY)PHENYL]PROPYLAMINE·OXALATE]",–
165,"O=CN1CCN(c2ccc(OCCC(c3ccccc3)c3ccccc3)cc2)CC1 [Compound 12, 1-FORMYL-4-[4-(3,3-DIPHENYLPROPOXY)PHENYL]PIPERAZINE·0.5 HYDRATE]",–
379.4,"O=C(CC(c1ccccc1)c1ccccc1)Nc1ccc(N2CCNCC2)cc1 [Compound 13, 4-[4-(3,3-DIPHENYLPROPANOYLAMINO) PHENYL]PIPERAZINE·0.5 HYDRATE]",–
130.4,"O=C(O)C(=O)O.c1ccc(C(CCOc2ccc(N3CCNCC3)cc2)c2ccccc2)cc1 [Compound 14, 4-[4-(3,3-DIPHENYLPROPOXY)PHENYL]PIPERAZINE OXALATE]",–
643.5,"Brc1ccc(OCCC(c2ccccc2)c2ccccc2)cc1 [Compound 17, 4-(3,3-DIPHENYLPROPOXY)BROMOBENZENE]",–
> 500,"NCCc1ccc(NC/C=C(/c2ccccc2)c2cccnc2)cc1 [Compound 20, Z-2-[4-(3-PHENYL-3-(3-PYRIDYL)PROPENYLAMINO)PHENYL]-ETHYLAMINE·OXALATE·0.2DIETHYL ETHER·0.15 ETHYL ACETATE·0.5 HYDRATE]",–
> 500,"NCCc1ccc(NC/C=C(\c2ccccc2)c2cccnc2)cc1 [Compound 21, E-2-[4-(3-PHENYL-3-(3-PYRIDYL)-2-PROPENYLAMINO)PHENYL]-ETHYLAMINE·OXALATE·0.33 ETHYL ACETATE·0.5 HYDRATE]",–
60,"N=C(N)NCCc1ccc(OCCN(Cc2ccccc2)Cc2ccccc2)cc1 [Compound 23, 2-[4-(2-[N,N'-DIBENZYLAMINO]-ETHOXY)PHENYL]ETHYLGUANIDINE]",–
769,"c1ccc(C(OCCOc2ccc(N3CCNCC3)cc2)c2ccccc2)cc1 [Compound 24, 4-[4-{2-(DIPHENYLMETHOXY)ETHOXY}PHENYL]PIPERAZINE·CARBONATE 2.0 HYDRATE]",–
